Patent US6274738A, “Carboxamide derivatives having aryl and thiazole rings” (Geron Corporation, priority 1997, dated 2001)

Target: T1, DNA primase (Homo sapiens, UniProt P49642+P49643)
T1 construct: using a nuclear extract comprising primase activity, as described above; endogenous in cells; host or cells: nuclear extract
Assay: Primase activity assay (incorporation of radioactive dATP on poly(dT) template)
Type: biochemical
Details: approximate concentration at which 50% of the primase enzyme activity was inhibited; determined using the methods described herein; read-out: IC50 (primase-inhibiting properties)
Protocol: In the assay, primase was diluted with primase dilution buffer (50% glycerol, 50 mM Tris HCl (pH 8.0) 20 mM KCl, 1 mM EDTA, 1 mM βME) to achieve a selected reaction volume (typically, reactions were carried out in an overall volume of 60 μl). A typical 60 μl reaction volume further included 50 mM Tris HCl (pH 8.0); 20 mM KCl, 200 μg/ml BSA, 4 mM MgCl2, 2 mM fresh DTT, 2 mM rATP, 5 μCi ^32 P (800 Ci/mmol) or 2.5 μCi ^33 P (2,000 Ci/mMol) dATP, 10 μg/ml Poly (dT), and primase and polymerase α.
The recombinant 180 Kd human polymerase ax protein was isolated from a bacculovirally transduced SF9 cell as described in Wang et al. (1995) Methods in Enzymology 262: 77-84. Typically, about 0.05 μg of p180 and about 0.025 μg of a 1:1 mixture of p49/p58 primase subunits were used per reaction.
Several reactions were typically set up in parallel, although a single reaction can also be assessed. For example, a Zymate XP (Zymark Corporation; Hopkinton, Mass.) automated robot using Microlab 2200 (Hamilton; Reno, Nev.) pipeting station to transfer parallel samples to 96 well microtiter plate was used to set up several parallel simultaneous reactions.
Parallel reactions were incubated for 30 minutes at 30° C. 15 μl of each reaction was spotted into one well on a Unifilter plate (Whatman GF/C glass fiber filter bottom), typically using the automated system described. The filters were then air dried. The Unifilter plate was placed onto the vacuum chamber of a dot blot apparatus, and 200 μl of ice cold 5% TCA/20 mM sodium pyrophosphate wash was added to each well, and vacuum applied. Each filter was washed three times. 100 μl of an ice cold 70% ethanol wash was added then added to each well, and vacuum applied. The ethanol wash was repeated, and the filters allowed to air dry. Excess fluid was removed from the bottom of the plate. The bottom of the plate was sealed with a transparent sealer, and 50 μl of Microscint-20 scintillation fluid was added to each well, e.g., using a Biomek1000® (Beckman Instruments; Dallas, Tex.). The top of the plate was sealed with TOPSEAL-S® Microplate Heat Sealing Film and CPM were counted for each well using a topcount microplate scintillation counter (Packard; Downers Grove, Ill.) or Trilux Microbeta 1450 (Wallac; Gaithersburg, Md.).
An assay similar to Example 2 was also developed to measure primase activity. Although the assay is described below with reference to using a nuclear extract as the source for primase activity, one of skill will recognize that the assay can easily be adapted for purified or recombinant primase. Examples 1 and 2 provide a description of the buffers, nuclear extracts, etc.
The reagents were combined into one or more separate reaction mixtures, with the poly dT, nuclear extract, and ^32 dATP being added just before use. The reaction mixtures were incubated for 1 hour at 37° C. The reactions were spotted onto filters on a unifilter plate and treated as described in Example 2.
The primase modulator compounds show in FIG. 1 were determined to modulate primase activity in the assays shown above, using a nuclear extract comprising primase activity, as described above.
For primary screening, compounds were added at the beginning of the reaction with all reagents as described above. Compounds were tested at a concentration of 100 μM. Compounds were tested in duplicate reactions.
This concentration information was used to determine the approximate IC50 for the primase modulating agents described in FIG. 1. The extract/enzyme preparation for primase modulating agents was preincubated with the compound for 30 min at 37° C. prior to addition of the remaining reagents.
The example modulators are primase inhibitors. The IC50 s for the compounds indicated in FIG. 1 was the approximate concentration of the modulator at which 50% of the primase enzyme activity in a reaction mixture was inhibited by the modulator.

T1 sequence (P49642 whole entry): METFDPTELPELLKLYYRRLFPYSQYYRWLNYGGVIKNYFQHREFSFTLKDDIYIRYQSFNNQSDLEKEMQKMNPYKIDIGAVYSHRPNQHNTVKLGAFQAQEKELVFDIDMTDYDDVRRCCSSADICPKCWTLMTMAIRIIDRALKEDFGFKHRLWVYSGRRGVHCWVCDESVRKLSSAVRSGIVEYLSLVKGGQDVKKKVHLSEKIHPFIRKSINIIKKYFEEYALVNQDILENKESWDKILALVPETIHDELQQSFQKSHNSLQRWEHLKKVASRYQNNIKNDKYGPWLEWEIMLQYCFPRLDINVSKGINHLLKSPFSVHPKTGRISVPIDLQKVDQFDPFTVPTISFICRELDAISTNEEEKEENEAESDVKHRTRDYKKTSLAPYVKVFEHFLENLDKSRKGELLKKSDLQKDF
T1 sequence (P49643 whole entry): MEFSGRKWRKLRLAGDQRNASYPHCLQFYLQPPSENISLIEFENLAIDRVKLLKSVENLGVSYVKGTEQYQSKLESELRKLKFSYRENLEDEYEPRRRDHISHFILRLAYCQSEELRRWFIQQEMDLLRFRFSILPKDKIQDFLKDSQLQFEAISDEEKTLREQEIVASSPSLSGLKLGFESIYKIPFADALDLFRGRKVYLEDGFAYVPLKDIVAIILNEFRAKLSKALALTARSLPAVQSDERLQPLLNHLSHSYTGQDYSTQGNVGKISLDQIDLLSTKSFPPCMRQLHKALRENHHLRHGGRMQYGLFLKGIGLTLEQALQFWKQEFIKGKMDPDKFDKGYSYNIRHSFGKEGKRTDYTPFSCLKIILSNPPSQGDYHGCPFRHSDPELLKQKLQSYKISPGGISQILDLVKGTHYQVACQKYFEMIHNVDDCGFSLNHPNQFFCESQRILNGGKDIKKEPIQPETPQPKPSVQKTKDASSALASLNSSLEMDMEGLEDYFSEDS
T1 sequence (P09884 whole entry partner): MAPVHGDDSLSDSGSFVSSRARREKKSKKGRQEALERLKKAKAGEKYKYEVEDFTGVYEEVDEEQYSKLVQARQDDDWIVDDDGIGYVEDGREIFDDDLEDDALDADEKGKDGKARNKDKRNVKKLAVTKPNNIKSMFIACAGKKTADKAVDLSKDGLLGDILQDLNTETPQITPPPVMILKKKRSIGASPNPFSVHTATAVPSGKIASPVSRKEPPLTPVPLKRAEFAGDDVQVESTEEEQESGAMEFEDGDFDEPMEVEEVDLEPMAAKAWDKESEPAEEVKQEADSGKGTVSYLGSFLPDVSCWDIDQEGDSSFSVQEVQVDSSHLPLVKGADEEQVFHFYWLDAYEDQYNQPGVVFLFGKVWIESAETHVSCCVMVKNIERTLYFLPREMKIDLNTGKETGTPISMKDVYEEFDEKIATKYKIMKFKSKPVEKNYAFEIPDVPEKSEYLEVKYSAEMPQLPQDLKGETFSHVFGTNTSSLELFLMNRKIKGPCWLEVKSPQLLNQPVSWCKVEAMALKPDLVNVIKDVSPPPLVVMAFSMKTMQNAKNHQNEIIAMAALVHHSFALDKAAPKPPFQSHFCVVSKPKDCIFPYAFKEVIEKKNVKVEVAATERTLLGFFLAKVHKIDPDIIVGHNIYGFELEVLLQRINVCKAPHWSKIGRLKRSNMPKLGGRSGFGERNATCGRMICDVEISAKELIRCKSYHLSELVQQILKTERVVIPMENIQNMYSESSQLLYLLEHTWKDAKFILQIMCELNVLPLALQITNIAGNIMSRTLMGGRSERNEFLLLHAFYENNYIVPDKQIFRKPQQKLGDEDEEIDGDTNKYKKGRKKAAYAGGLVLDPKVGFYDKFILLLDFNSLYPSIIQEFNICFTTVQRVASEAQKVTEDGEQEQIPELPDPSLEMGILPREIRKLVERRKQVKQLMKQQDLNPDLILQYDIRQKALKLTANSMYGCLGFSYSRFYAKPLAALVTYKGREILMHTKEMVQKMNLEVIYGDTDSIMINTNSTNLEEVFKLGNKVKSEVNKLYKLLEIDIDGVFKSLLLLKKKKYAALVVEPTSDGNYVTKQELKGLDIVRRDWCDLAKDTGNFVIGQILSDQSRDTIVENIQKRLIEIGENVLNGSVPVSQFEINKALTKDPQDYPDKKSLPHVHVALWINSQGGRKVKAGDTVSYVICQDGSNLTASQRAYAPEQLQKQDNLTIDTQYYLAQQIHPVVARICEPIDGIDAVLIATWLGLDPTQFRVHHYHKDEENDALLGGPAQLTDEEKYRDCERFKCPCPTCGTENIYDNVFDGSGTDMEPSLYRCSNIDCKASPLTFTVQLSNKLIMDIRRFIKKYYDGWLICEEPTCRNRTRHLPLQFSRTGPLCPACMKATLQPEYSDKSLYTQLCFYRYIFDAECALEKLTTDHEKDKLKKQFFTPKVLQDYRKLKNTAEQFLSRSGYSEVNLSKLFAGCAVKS
T1 sequence (Q14181 whole entry partner): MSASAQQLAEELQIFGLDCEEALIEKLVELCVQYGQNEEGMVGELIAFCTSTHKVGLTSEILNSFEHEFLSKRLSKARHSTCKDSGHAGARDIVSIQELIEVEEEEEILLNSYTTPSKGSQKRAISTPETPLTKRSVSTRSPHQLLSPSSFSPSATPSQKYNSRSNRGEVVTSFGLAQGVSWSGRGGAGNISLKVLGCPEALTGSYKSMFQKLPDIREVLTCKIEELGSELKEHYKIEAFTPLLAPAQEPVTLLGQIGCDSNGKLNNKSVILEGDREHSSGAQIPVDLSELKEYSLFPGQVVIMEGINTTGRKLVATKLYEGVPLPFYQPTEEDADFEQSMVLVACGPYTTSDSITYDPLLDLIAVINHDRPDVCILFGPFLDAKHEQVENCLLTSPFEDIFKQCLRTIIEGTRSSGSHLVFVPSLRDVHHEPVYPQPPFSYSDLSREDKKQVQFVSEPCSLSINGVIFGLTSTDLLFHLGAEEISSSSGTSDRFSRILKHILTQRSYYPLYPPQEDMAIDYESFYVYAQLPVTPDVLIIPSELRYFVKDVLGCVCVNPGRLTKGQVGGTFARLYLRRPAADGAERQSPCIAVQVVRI

IC50 | Structure (SMILES)
~37 µM | O=C(Nc1ccc(Cl)cc1)c1csc(-c2ccncc2)n1 [Compound 6]
~30 µM | O=C(Nc1ccccc1Cl)c1csc(-c2cccnc2)n1 [Compound 2]
~44 µM | O=C(Nc1ccc(C(F)(F)F)cc1)c1csc(-c2ccncc2)n1 [Compound 5]
~63 µM | O=C(Nc1ccc(Br)cc1)c1csc(-c2ccncc2)n1 [Compound 7]
~19 µM | O=C(Nc1ccc(F)cc1F)c1csc(-c2ccncc2)n1 [Compound 8]
~37 µM | O=C(Nc1cccc(C(F)(F)F)c1)c1csc(-c2ccncc2)n1 [Compound 4]
